Laboratory results reported in US12016355B2, “Stevia composition” (PURECIRCLE SDN BHD, priority 2011, dated 2024).
Where two headings read alike, the source gives them in different places.

Experiments:
[1] = cited from earlier work
[2] = Chang and Cook 1983; cited from earlier work
[3] = assay type: physicochemical
Experimental: Hereinafter, unless specified otherwise the solubility of material is determined in reverse osmosis (RO) water at room temperature. Where the solubility is expressed as “%” it to be understood as number of grams of material soluble in 100 grams of solvent.
The temperature was increased at 1° C. per minute to 121° C. The mixture was maintained at 121° C. for 1 hour and then the temperature was decreased to 80° C., at 1° C. per minute, and the obtained solution was spray dried using YC-015 laboratory spray drier (Shanghai Pilotech Instrument & Equipment Co. Ltd., China) operating at 175° C. inlet and 100° C. outlet temperature. Solution was maintained at 80° C. to prevent premature crystallization.
Solubility were evaluated for Reb A, Reb B, mechanical blends of Reb A and Reb B powders of different ratios, and mixtures of Reb A and Reb B prepared according to process described in EXAMPLE 1.

[4] = Sweetness factor (SF) determination by trained panel in water; settings: for Calculated SF (sweetness factor) / Usage Level, % (concentration corresponding to 5% sucrose equivalent sweetness): in water, 5% SE
Experimental: The sweetness factors for different sweetener from all major groups were measured by tasting several concentrations of each sweetener in water by trained panel. From the sensory test at a, the concentration (%) that corresponds to the 5% sucrose equivalent (SE) sweetness were estimated and listed in Table 2. The sweetness equivalent (SE) of high intensity sweeteners (HIS) varies according to the target sugar equivalent sweetness levels, that are tested as shown in Table 3.

[5] = Trained panel evaluation, no fat (NF) yogurt; settings: formulas of Table 6
Experimental: Samples were prepared according to formulas outlined below in Table 6. Samples included a full sugar reference, an aspartame reference, a Reb A control and several test samples with a Reb A/Reb B blends. The samples were evaluated by a trained panel and screened for overall sweetness, bitterness, astringency, mouth coating, flavor intensity, acidity/tartness, sweet lingering and bitter lingering.

[6] = room temperature; reported values; cited from earlier work
[7] = Trained panel evaluation, chocolate milk; settings: sugar-equivalent sweetness around 5.5%
Experimental: A series of samples were prepared to having sugar-equivalent sweetness around 5.5%. The control sample was sweetened with 5.5% sugar the test samples were sweetened with different ratios of Reb A/Reb as shown in Table 7 below. The samples were evaluated by a trained panel and screened for overall sweetness, bitterness, astringency, mouth coating, flavor intensity, acidity/tartness, sweet lingering and bitter lingering.

[8] = Descriptive sensory evaluation of sweetener solutions in water by trained panel
Experimental: In another embodiment, Stevia sweetener (Reb A, Reb B or blends thereof) solutions were made by completely dissolving Stevia into distilled water. Solutions were tasted and evaluated by a trained panel. […] All solutions were made with different mass ratio of Reb A and Reb Bas shown in FIG. 3 to get the 7% sweetness equivalent. Reb B a mount varied between 20 mg/kg to 150 mg/kg.
All sensory attributes were rated by trained panelists on a scale of zero (0) to ten (10). Samples were presented in a randomized fashion and labeled with three-digit codes.
Sweet Onset—This attribute describes the time at which panelists perceived sweetness upon placing the sample in the mouth. A score of zero indicates immediate identification of sweetness, whereas a score of ten indicates a long delay in the time that sweetness was perceived.
Total Sweetness—This attribute describes the highest intensity of sweetness perceived during tasting. A score of zero indicates no sweetness, while a score of ten indicates very high sweetness.
Bitterness—This attribute describes the highest intensity of bitterness perceived during tasting. A score of zero indicates no bitterness, while a score of ten indicates very high bitterness.
Rounded Sweetness—This attribute describes the duration of sweetness while samples are in the mouth.
Flavor Intensity—This attribute describes the highest intensity of flavor perceived during tasting. A score of zero indicates no flavor, while a score of ten indicates very high flavor.
Astringency—This attribute describes the highest intensity of astringency perceived during tasting. A score of zero indicates no astringency, while a score of ten indicates very high astringency.
Mouth Coating—This attribute describes the highest intensity of sweetness coating perceived while samples are in the mouth.
Sweet Lingering—This attribute describes the highest intensity of sweetness perceived after the sample has been swallowed.
Bitter Lingering—This attribute describes the highest intensity of bitterness perceived after the sample has been swallowed.
Aftertaste Mouth Coating—This attribute describes the highest intensity of sweetness coating perceived after the sample has been swallowed.
Tartness—This attribute describes the highest intensity of tartness perceived during tasting. A score of zero indicates no tartness, while a score of ten indicates very high tartness.
Cooling Sensation—This attribute describes the highest intensity of cooling sensation perceived during tasting. A score of zero indicates no cooling sensation, while a score of ten indicates very high cooling sensation.
Water solution of mogroside (100 ppm) sweetener was tested against solutions made with mogroside (100 ppm)+Reb B (300 ppm) and mogroside (100 ppm)+Reb A/B (Example 3) blend (128 ppm) by a 13 members trained panel.
Water solution of sucralose (40 ppm) was tested against solutions made with sucralose (40 ppm)+Reb B (150 ppm) and sucralose (40 ppm)+Reb A/Reb B (Example 3) blend (68 ppm) by a 13 members trained panel.
Water solution of erythritol (5%) was tested against solutions made with erythritol (5%)+Reb B (50 ppm) and erythritol (5%)+Reb A/Reb B (Example 3) blend (22 ppm) by a 13 members trained panel.
Fructo-oligosaccharide or FOS solution (21%) was tested against solutions made with FOS (21%)+Reb B (150 ppm) and FOS (21%)+Reb A/Reb B (Example 3) blend (68 ppm) by a 13 members trained panel.

[9] = Descriptive sensory evaluation, peppermint mouthwash, 8 panelists; settings: Maltitol 6.44% + Reb B 50 or 150 ppm
Experimental: A commercial unsweetened (no sugar or sweetener) peppermint mouthwash product (Brand: The Natural Dentist) was used to determine the effect of Reb B with other sweetener, as example maltitol, a sugar alcohol on the sensory profile of mouthwash. Mouthwash samples were sweetened with Maltitol (6.44%), Maltitol+Reb B (50 ppm), Maltitol+Reb B (150 ppm). Descriptive sensory evaluation was conducted with 8 panelists. They evaluated several attributes including sweet onset, total sweetness, bitterness, rounded sweetness, flavor intensity, astringency, mouth coating, sweet lingering, bitter lingering, aftertaste mouth coating, tartness.

[10] = Descriptive sensory evaluation, lime-tequila margarita alcoholic beverage; settings: FOS 21% + Reb B 150 ppm, about 10% alcohol
Experimental: The Fructo-oligosaccharide (FOS) sweetener and the steviol glycosides compositions (described in EXAMPLE 12) were used for making an alcoholic beverage—lime-tequila margarita drink using Margarita pre-mix from FIS (Flavor International Systems), recommended usage was 0.4%. Prepared Lime Tequila Margarita blank containing about 10% alcohol, no sugar added. To sweeten the beverage, used FOS (21%), FOS+Reb B (150 ppm), and FOS+Reb A/Reb B (68 ppm). Descriptive Sensory evaluation was conducted with 8-13 panelists.

[11] = Sugar equivalent sweetness of sweetener/Reb B combinations in plain water, trained panel; settings: Reb B at 50, 150 and 300 ppm with sweeteners of Table 2
Experimental: In one embodiment, Reb B was combined (at 50, 150 and 300 ppm) with several sweeteners listed in Table 2 to make solutions in plain water. Some of the sweeteners were tested at two different concentrations to obtain around 2% sugar equivalent sweetness without any Reb B. A trained panel conducted sensory tests to determine the effect of the addition of different amounts of Reb B to each sweetener on overall sweetness quality and intensity as shown in Table 4.

[12] = sensory evaluations, Crammer and Ikan 1986

Structure (SMILES)	stability in carbonated beverages [2]	times sweeter than sucrose [1, 12]	Sweetness factor ([4]; SE level 5.0%)	Sweetness factor ([4]; SE level 7.5%)	Sweetness factor ([4]; SE level 10.0%)	Sweetness factor ([4]; SE level […])	Calculated SF (sweetness factor) [4]	Usage Level, % (concentration corresponding to 5% sucrose equivalent sweetness) [4] [%]	water solubility [6]	also measured
C=C1C[C@@]23CC[C@H]4[C@@](C)(CCC[C@@]4(C)C(=O)O[C@@H]4O[C@H](CO)[C@@H](O)[C@H](O)[C@H]4O)[C@@H]2CC[C@]1(O[C@@H]1O[C@H](CO)[C@@H](O)[C@H](O)[C@H]1O[C@@H]1O[C@H](CO)[C@@H](O)[C@H](O)[C@H]1O)C3 [stevioside]	heat and pH stability	–	–	–	–	–	–	–	–	times sweeter than sucrose ([1]; as usually found, literature): 110-270 times
C=C1C[C@@]23CC[C@H]4[C@@](C)(CCC[C@@]4(C)C(=O)O[C@@H]4O[C@H](CO)[C@@H](O)[C@H](O)[C@H]4O)[C@@H]2CC[C@]1(O[C@@H]1O[C@H](CO)[C@@H](O)[C@H](O[C@@H]2O[C@H](CO)[C@@H](O)[C@H](O)[C@H]2O)[C@H]1O[C@@H]1O[C@H](CO)[C@@H](O)[C@H](O)[C@H]1O)C3 [Reb A, Rebaudioside A]	heat and pH stability	350-450 times	290	250	200	400	291	0.0172	0.8%	sensory attributes among major steviol glycosides ([1]; Tanaka 1987, Phillips 1989): the least astringent, the least bitter, and the least persistent aftertaste; water solubility [3]: around 1%; acidity [5]: enhanced the acidity of the yogurt; bitterness [5]: bitterness at the end; sweetness and flavor profile [7]: separate peaks for sweetness, dairy notes, and cocoa notes
C=C1C[C@@]23CC[C@H]4[C@@](C)(CCC[C@@]4(C)C(=O)O)[C@@H]2CC[C@]1(O[C@@H]1O[C@H](CO)[C@@H](O)[C@H](O[C@@H]2O[C@H](CO)[C@@H](O)[C@H](O)[C@H]2O)[C@H]1O[C@@H]1O[C@H](CO)[C@@H](O)[C@H](O)[C@H]1O)C3 [Reb B, Rebaudioside B]	–	300-350 times	126	95	59	146	126	0.0397	about 0.1%	sweetness and sweetness profile versus FOS solution ([8]; FOS 21% + Reb B 150 ppm or Reb A/Reb B 68 ppm): significantly higher sweetness and made the sweetness profile rounded; onset of sweetness, peak sweetness and sweetness lingering versus erythritol solution ([8]; water, erythritol 5% + Reb B 50 ppm): improved the onset of sweetness and the peak sweetness without increasing the sweetness lingering; taste (sweetness, bitterness, cooling effect) versus erythritol solution ([8]; water, erythritol 5% + Reb B 50 ppm or Reb A/Reb B 22 ppm): improved the taste of erythritol sample significantly by increasing the sweetness and reducing the bitterness and cooling effect; taste attributes versus mogroside solution ([8]; water, mogroside 100 ppm + Reb B 300 ppm or Reb A/B 128 ppm): increases sweetness level significantly, improves the onset of sweetness and decreases the bitterness; onset of sweetness and off taste versus sucralose solution ([8]; water, sucralose 40 ppm + Reb B 150 ppm): improved the onset of sweetness and decreased the off taste slightly; sweetness level versus sucralose solution ([8]; water, sucralose 40 ppm + Reb B 150 ppm or Reb A/Reb B 68 ppm): significantly higher sweetness level; all other sensory attributes [9]: generally unchanged; sweetness onset and total sweetness [9]: created an earlier sweetness onset, and higher total sweetness; Solubility in water [3]: No*; flavor intensity, bitter lingering and tartness [10]: decrease in flavor intensity, bitter lingering, and tartness; sweetness profile of the alcoholic beverage [10]: sweetness onset was earlier in the profile, and there was an increase in total sweetness and the sweetness profile was more rounded; effect of addition of Reb B on overall sweetness quality and intensity [11]: generally increased upfront sweetness, made the sweetness profile rounded and contributed to sweetness lingering at a higher level
